Measured values: patent US7098219B2, “Inhibitors of cellular efflux pumps of microbes” (Wockhart Limited, priority 2000, dated 2006)

These molecules were tested on Staphylococcus aureus 1199 B NorA+. Settings: combination with ciprofloxacin, broth microdilution checkerboard, 35° C. 20 hours; FIC index ≦0.5 synergistic, 0.5–2.0 additive, >2.0 antagonistic.
Format: cell-based
Excerpt: Testing method for inhibition of the efflux pump of Staphylococcus aureus 1199B NorA^+
[…]. Victor Lorian, Md., Fourth edition 1996, pp 333–338).
In short, the assay involves broth microdilution method performed as recommended by the National Committee for Clinical Laboratory Standards (NCCLS) 1997 (Methods for Dilution of Antimicrobial Susceptibility Tests for Bacteria that Grow Aerobically, Fourth edition; Approved Standard, NCCLS document M7-A4, vol. 17, No. 2). The test organism used for the assay is Staphylococcus aureus 1199 B NorA^+.
[…]. Stock solutions of the efflux pump inhibitors tested are prepared in dimethyl sulfoxide (DMSO) at a final concentration of 5 mg/ml. Stock solutions are further diluted in Mueller Hinton Broth as per the need of the assay. Ciprofloxacin is dissolved in water.
The checkerboard assay is performed in microtiter plates. […] The efflux pump inhibitor is diluted in the Y-axis, each row containing an equal concentration of efflux pump inhibitor. The result of these manipulations is that each well of the microtiter plate contains a unique combination of concentrations of the two agents. Bacterial inoculum is added at 5×10^5 CFU/ml. Microtiter plates are incubated at 35° C. for 20 hours. Reading is done by visibly noting turbidity and confirmed using a microtiter plate reader (Molecular Devices). The FIC index is calculated as
(A) is the concentration of the experimental efflux pump inhibitor in the well that is the lowest inhibitory concentration in the Y-axis. (MICA) is the MIC of Staphylococcus aureus to experimental efflux pump inhibitor alone. FICA is the fractional inhibitory concentration of an experimental efflux pump inhibitor. […] (Antimicrobial Combination In Antibiotics in Laboratory Medicine, Ed. Victor Lorian, Md., Fourth edition 1996, pp 333–338).
In the case of CN1CCN(c2cc3c(cc2F)c(=O)c(C(=O)O)cn3-c2ccccc2C(F)(F)F)CC1(C)C [Example 39 (NorA), 1-(2′-Trifluoromethylphenyl)-6-fluoro-1,4-dihydro- -7-(3′,3′,4′-trimethylpiperazin-1-yl)-4-oxo-quinoline-3-carboxylic acid], the “FIC INDEX” value is reported as 0.282. For CC1CN(c2c(F)c(N)c3c(=O)c(C(=O)O)cn(-c4ccccc4C(F)(F)F)c3c2F)CC(C)N1 (centres unmarked) [Example 42 (NorA), 5-Amino-1-(2′-trifluoromethylphenyl)-6,8-difluoro-1,4-dihydro-7-(3′,5′-dimethylpiperizine-1-yl)-4-oxo-quinoline-3-carboxylic acid], the “FIC INDEX” value was 0.314. In the case of Nc1c(F)c(N2CCN(c3nc4c(cc3F)c(=O)c(C(=O)O)cn4C3CC3)CC2)c(F)c2c1c(=O)c(C(=O)O)cn2C1CC1 [Bis compound 4, N-1-{7-(1-cyclopropyl-6-fluoro-1,4-dihydro-4-oxo-1,8-naphthyridine-3-carboxylic acid)}-N-4-{7-(1-cyclopropyl-6,8-difluoro-5-amino-1,4-dihydro-4-oxo-quinoline-3-carboxylic acid)}-piperazine], the “FIC INDEX” value is reported as 0.282. CCOC1CCN(c2cc3c(c(C)c2F)c(=O)c(C(=O)O)cn3C2CC2)CC1 [Example 17 (NorA), 1-Cyclopropyl-6-fluoro-1,4-dihydro-5-methyl-7-(4′-ethoxypiperidin-1-yl)-4-oxo-quinoline-3-carboxylic acid] was tested, and the “FIC INDEX” value was 0.378. In the case of “N-3-azabycyclo{7-(1-(2,4-difluorophenyl)-6-fluoro-1,4-dihydro-4-oxo-1,8-naphthyridine-3-carboxylic acid)}-[1∝,5∝,6∝]-N-6-amino-{7-1-(2,4-difluorophenyl)-6-fluoro-1,4-dihydro-4-oxo-1,8-naphthyridine-3-carboxylic acid)}-3.1.0]hexane [Bis compound 9]”, the “FIC INDEX” value is reported as 0.314. With CC1CC(C)CN(c2cc3c(cc2F)c(=O)c(C(=O)O)cn3C2CC2)C1 (centres unmarked) [Example 13 (NorA), 1-Cyclopropyl-6-fluoro-1,4-dihydro-7-(3′,5′-dimethylpiperidin-1-yl)-4-oxo-quinoline-3-carboxylic acid] the “FIC INDEX” value was 0.314. CCOC(=O)c1cn(-c2ccc(F)cc2F)c2nc(N3CCc4c(cnn4-c4ccccc4)C3)c(F)cc2c1=O [Example 52 (NorA), Ethyl 6-fluoro-7-[1-Phenyl-4,5,6,7-tetrahydropyrazolo[4.3-c]pyridin-1-yl]-1-(2,4-difluorophenyl)-4-oxo-1,4-dihydro-1,8-naphthyridine-3-carboxylate] was tested, and the “FIC INDEX” value was 0.100. For CCOC(=O)NC1CCN(c2nc3c(cc2F)c(=O)c(C(=O)O)cn3C2CC2)C1 (centres unmarked) [Example 48 (NorA), 1-Cyclopropyl-6-fluoro-1,4-dihydro-7-{(3′-aminoethoxycarbonyl)pyrrolidin-3-yl}-4-oxo-naphthyridine-3-carboxylic acid], the “FIC INDEX” value was “(3-ethoxycarbonylamino)pyrrolidin-3-yl 0.314”. Nc1c(F)c(N2CCOCC2)c(F)c2c1c(=O)c(C(=O)O)cn2-c1ccccc1C(F)(F)F [Example 40 (NorA), 5-Amino-1-(2′-trifluoromethylphenyl)-6,8-difluoro-1,4-dihydro-7-(morpholin-1-yl)-4-oxo-quinoline-3-carboxylic acid] was tested, and the “FIC INDEX” value was 0.314. In the case of CC1CN(c2cc3c(cc2F)c(=O)c(C(=O)O)cn3C2CC2)CC(C)N1C (centres unmarked) [Example 15 (NorA), 1-Cyclopropyl-6-fluoro-1,4-dihydro-7-(3′,4′,5′-trimethylpiperazin-1-yl)-4-oxo-quinoline-3-carboxylic acid], the “FIC INDEX” value is reported as 0.314. With CCOC(=O)c1cn(-c2ccc(F)cc2F)c2nc(NC3C4CN(Cc5ccccc5)CC43)c(F)cc2c1=O (centres unmarked) [Example 51 (NorA), Ethyl-1-(2′,4′-difluorophenyl)-6-fluoro-1,4-dihydro-7-{[1∝,5∝,6∝]-3-N-benzyl-3-azabicyclo[3.1.01]hex-6-yl-amino}-4-oxo-1,8-naphthyridine-3-carboxylate] the “FIC INDEX” value was 0.185.
